# From PMC10610424, “Enhancing Solubility and Dissolution Rate of Antifungal Drug Ketoconazole through Crystal Engineering” (Pharmaceuticals, 2023)
# How the values were obtained:
# [1] = cited from earlier work
# [2] = Powder dissolution experiments, basket method; type: physicochemical; conditions: pure water and pH 4.5 acetate buffer, 37 °C, up to 480 min
# Procedure: The powder dissolution experiments were performed via a dissolution apparatus (RC12AD dissolution tester, TDTF Technology Co., Ltd., Tianjin, China) by a basket method in pure water and pH 4.5 acetate buffer solution, respectively, with a rotation speed of 100 rpm under a temperature of 37 ± 0.2 °C [67]. […] At regular time intervals of 5, 15, 30, 60, 90, 120, 180, 240, 360, and 480 min, 1 mL of solution was extracted, and the withdrawn solutions were filtered using a 0.45 μm syringe tip filter. […] All the dissolution experiments were performed in triplicate. After the dissolution experiments, residual solids were collected, air-dried, and confirmed by PXRD.
# pKa values and ΔpKa rule = type: physicochemical
# Text: To understand the crystal nature of the obtained solid forms (a salt or a cocrystal), three commonly used principles have been summarized, such as the ΔpKa rule, the position of the hydroxyl-H atom retrieved from SCXRD data, and the structural characteristics of interacting groups. The pKa values of the starting functional groups, the ΔpKa values between the two considered groups, the geometric parameters of the C−O bond lengths of the carboxylic/carboxylate group, and the endocyclic C−N−C bond angle are provided in Table 2. Firstly, the ΔpKa rule has long been used for the prediction of salt or cocrystal formation. It is generally accepted that when ΔpKa is >4, proton transfer is expected to occur and salt is anticipated to form; when ΔpKa < −1, on the other hand, the formation of non-ionized cocrystals prevails over that of salts. However, if the ΔpKa values are located in the region of −1 to 4, it is impossible to provide a prediction of a salt or a cocrystal. […] Secondly, the residual density map provided by the SXRD data (Figure S3) could be used to distinguish the location of the H atom and, thus, the cocrystal, salt, and salt–cocrystal continuum could be distinguished. […] Thirdly, the ionization state of the structures was also supported by the difference in the C−O bond lengths in a carboxylic/carboxylate group and the bond angle of C24−N4−C25 in the imidazole ring. In a neutral carboxylic group, the length of C−O is longer than that of C=O, while in the carboxylate anion, there is nearly no difference between the bond lengths of C−O and C−O^− [47]. The endocyclic C−N−C bond angle of the cationic N-heterocycle is higher than that of the neutral state.
# [3] = Equilibrium solubility, shake flask method, HPLC of KTZ; type: physicochemical; conditions: for Equilibrium solubility, concentration of KTZ / solubility thermodynamic at 48 h: 37.0 °C, mean ± SD, triplicate; for Equilibrium solubility, concentration of KTZ / Solid-form stability of residual solids after equilibrium solubility experiments (PXRD) / solubility thermodynamic at 48 h: 48 h; for Solid-form stability of residual solids after equilibrium solubility experiments (PXRD): ultrapure water and pH 4.5 acetate buffer
# Procedure: The solutions were stirred at 160 strokes min^−1 with a magnetic bar at 37 °C for 48 h to reach equilibrium. The suspension was filtered through a 0.22 μm nylon filter membrane, diluted appropriately, and analyzed by subsequent high-performance liquid chromatography (HPLC) analysis. […] An Agilent Eclipse XDB−C18 (250 mm × 4.6 mm, 5 μm) column was used throughout the process of elution with the column temperature set to 30 °C. The mobile phase, consisting of methanol and water (80/20, v/v), was run at 1.0 mL min^−1 with a detection wavelength of 254 nm. The injection sample volume was 10 μL. The measurements were performed based on an external standard method. All the solubility experiments were performed in triplicate and the results are expressed as the mean value ± standard deviation (SD). Residual solids were collected after the equilibrium solubility experiment and characterized by PXRD for solid-form stability examinations.
# [4] = value of the coformer (CCF) of the crystal named in the line; source not given; cited from earlier work
# [5] = Accelerated stability test, PXRD; type: physicochemical; conditions: high temperature 60 °C, high humidity 90%, illumination 4500 lx; 0, 5, 10 days
# Procedure: Approximately 50 mg of powdered samples were stored under the three test conditions and measured at regular time intervals (0, 5, and 10 days) by PXRD [68].
Structure (SMILES),Solubility in ultrapure water ([1]; ultrapure water),Solid-form stability of residual solids after powder dissolution experiments (PXRD) [2],ΔpKa Values between CCF and KTZ (pKa values and ΔpKa rule),Solubility of ketoconazole in distilled water ([3]; distilled water (abstract)) [µg/mL],"Equilibrium solubility, concentration of KTZ ([3]; pH 4.5 acetate buffer) [µg/mL]",Solid-form stability of residual solids after equilibrium solubility experiments (PXRD) ([3]; 37 °C),"Equilibrium solubility, concentration of KTZ ([3]; ultrapure water) [µg/mL]",pKa Values of CCFs [4],Solubility increase in water concerning ketoconazole ([3]; water) [fold],Stability under accelerated storage conditions (PXRD) [5],"solubility at 48 h ([3]; 37 °C, thermodynamic from solid, distilled water (abstract), read-out: Solubility of ketoconazole in distilled water) [µg/mL]","solubility thermodynamic at 48 h ([3]; aqueous buffer, thermodynamic from solid, pH 4.5 acetate buffer) [µg/mL]","solubility thermodynamic at 48 h ([3]; thermodynamic from solid, ultrapure water) [µg/mL]","Solubility in water ([1]; water, 25 °C) [µg/mL]"
CC(=O)N1CCN(c2ccc(OCC3COC(Cn4ccnc4)(c4ccc(Cl)cc4Cl)O3)cc2)CC1.O=C(O)c1ccc(O)c(O)c1 (racemic) [KTZ-PCA-I],approximately 500 μg mL^−1,–,–,–,–,–,–,–,–,–,–,–,–,–
CC(=O)N1CCN(c2ccc(OCC3COC(Cn4ccnc4)(c4ccc(Cl)cc4Cl)O3)cc2)CC1.O=C(O)c1c(O)cccc1O (racemic) [KTZ−26DHB],–,remained stable,3.9,139.1,263.76 ± 8.51,remained stable and nondissociable,139.13 ± 14.25,1.6,–,–,–,–,–,–
CC(=O)N1CCN(c2ccc(OCC3COC(Cn4ccnc4)(c4ccc(Cl)cc4Cl)O3)cc2)CC1.O=C(O)c1cc([N+](=O)[O-])cc([N+](=O)[O-])c1 (racemic) [KTZ−35DNB],–,remained stable,3.7,191.7,273.66 ± 9.87,remained stable and nondissociable,191.67 ± 15.95,2.8,–,–,–,–,–,–
CC(=O)N1CCN(c2ccc(OCC3COC(Cn4ccnc4)(c4ccc(Cl)cc4Cl)O3)cc2)CC1.O=C(O)CCCC(=O)O (racemic) [KTZ−GTA],–,–,2.2,2165.6,339.87 ± 28.33,–,2165.56 ± 251.34,4.3,1800,–,–,–,–,–
CC(=O)N1CCN(c2ccc(OCC3COC(Cn4ccnc4)(c4ccc(Cl)cc4Cl)O3)cc2)CC1.O=C(O)c1ccc(O)c(O)c1 (racemic) [KTZ−PCA-II],–,–,2.0,386.3,308.06 ± 33.95,–,386.34 ± 89.30,4.5,–,–,–,–,–,–
"CC(=O)N1CCN(c2ccc(OCC3COC(Cn4ccnc4)(c4ccc(Cl)cc4Cl)O3)cc2)CC1 (stereo not drawn) [KTZ, cis-1-acetyl-4-[4-[[2-(2,4-dichlorophenyl)-2-(1-H-imidazole-1-ylmethyl)-1,3-dioxolan-4-yl]methoxy]phenyl] piperazine, reference compound]",–,–,–,–,–,–,–,–,–,stable,1.2,239 ± 4.69,1.2 ± 0.27,0.087
